Measurements from ChEMBL document CHEMBL3407340, “Synthesis, radiolabeling and evaluation of novel 4-oxo-quinoline derivatives as PET tracers for imaging cannabinoid type 2 receptor” (Eur J Med Chem, 2015).

Target: Cannabinoid receptor 1 (Homo sapiens, UniProt P21554)
Experiment: Displacement of [3H]-CP-55940 from human CB1 receptor transfected in CHOK1 cells after 90 mins by liquid scintillation counting analysis
Format: cell-based, CHO-K1

Chain of Cannabinoid receptor 1 (P21554 whole entry): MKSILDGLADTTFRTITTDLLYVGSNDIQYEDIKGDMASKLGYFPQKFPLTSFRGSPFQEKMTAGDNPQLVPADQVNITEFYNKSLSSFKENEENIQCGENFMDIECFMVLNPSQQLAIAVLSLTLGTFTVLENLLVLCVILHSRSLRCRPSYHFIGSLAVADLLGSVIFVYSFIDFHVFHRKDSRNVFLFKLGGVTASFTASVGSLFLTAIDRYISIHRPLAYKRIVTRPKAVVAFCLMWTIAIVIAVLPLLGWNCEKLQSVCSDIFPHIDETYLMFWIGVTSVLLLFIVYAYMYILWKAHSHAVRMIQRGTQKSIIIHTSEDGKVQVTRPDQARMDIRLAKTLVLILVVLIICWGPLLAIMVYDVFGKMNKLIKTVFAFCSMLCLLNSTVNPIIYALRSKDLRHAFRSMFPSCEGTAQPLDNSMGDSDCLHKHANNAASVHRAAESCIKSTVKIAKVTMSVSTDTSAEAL

Row | Structure (SMILES) | Ki [µM]
1 | CCOCCn1cc(C(=O)NC23CC4CC(CC(O)(C4)C2)C3)c(=O)c2cccc(OC)c21 | > 10
2 | CCCCn1cc(C(=O)NC23CC4CC(CC(C4)C2)C3)c(=O)c2cccc(OC)c21 | > 10
